Tests used:
[1] = Clearance in human liver microsomes at 1 uM measured upto 30 mins in presence of NADPH by LC-MS/MS analysis; assay type: ADME, Microsome
Hepatitis B virus = test: Antiviral activity against HBV stably transfected in human HepG2.2.15 cells assessed as reduction of HBV DNA replication incubated for 5 days by q-PCR analysis; assay type: functional, organism-based; settings: HepG2 2.2.15, 120 h
[2] = Cytotoxicity against human HepDE19 cells assessed as reduction in cell viability incubated for 5 days by CCK-8 assay; assay type: functional; settings: HepDE19, 120 h, time 5 day
[3] = Induction of CYP3A4 mRNA expression level in human hepatocytes at 10 uM incubated for 24 hrs by q-PCR analysis; assay type: ADME, cell-based, Hepatocyte

Row | SMILES | CLhep predicted at 1 µM [1] | EC50 (Hepatitis B virus) | CC50 [2] | Activity [3]
1 | CCOC(=O)C1=C(CN2CCN3C(=O)N(C(C)(C)C(=O)O)C[C@@H]3C2)NC(c2nccs2)=N[C@H]1c1ccc(F)cc1Cl | 1.6 mL/min/kg | 200 nM | 61000 nM | –
2 | COC(=O)C1=C(CN2CCN3C(=O)OC[C@H]3C2)NC(c2nccs2)=N[C@H]1c1ccc(F)cc1Cl | – | 23 nM | 76000 nM | –
3 | CCOC(=O)C1=C(CN2C[C@H]3CN(C4CC4)C(=O)N3C[C@H]2C(=O)O)NC(c2nccs2)=N[C@H]1c1ccc(F)cc1Cl | 1.7 mL/min/kg | 145 nM | > 100000 nM | –
4 | COC(=O)C1=C(CN2CCN3C(=O)OC[C@@H]3C2)NC(c2nccs2)=N[C@H]1c1ccc(F)cc1Cl | – | 3 nM | 79000 nM | 70%
5 | COC(=O)C1=C(CN2CCN3C(=O)CC[C@@H]3C2)NC(c2nccs2)=N[C@H]1c1ccc(F)cc1Cl | – | 14 nM | 45000 nM | 44%
6 | COC(=O)C1=C(CN2CCN(C(C)=O)CC2)NC(c2nccs2)=N[C@H]1c1ccc(F)cc1Cl | – | 50 nM | > 100000 nM | –
7 | COC(=O)C1=C(CN2CCc3c([nH][nH]c3=O)C2)NC(c2nccs2)=N[C@H]1c1ccc(F)cc1Cl | – | 750 nM | > 100000 nM | 13%
8 | CCOC(=O)C1=C(CN2CCN3C(=O)N(c4ccccc4C(=O)O)C[C@@H]3C2)NC(c2nccs2)=N[C@H]1c1ccc(F)cc1Cl (single isomer, unassigned) | 4.4 mL/min/kg | 30 nM | – | –
9 | CCOC(=O)C1=C(CN2C[C@H]3CN(C)C(=O)N3C[C@H]2C(=O)O)NC(c2nccs2)=N[C@H]1c1cccc(F)c1Cl | – | 150 nM | > 100000 nM | –
10 | COC(=O)C1=C(CN2CCN3C(=O)NC[C@H]3C2)NC(c2nccs2)=N[C@H]1c1ccc(F)cc1Cl | – | 150 nM | 89000 nM | –
11 | CCOC(=O)C1=C(CN2C[C@H]3CN(C(C)(C)C)C(=O)N3C[C@H]2C(=O)O)NC(c2nccs2)=N[C@H]1c1ccc(F)cc1Cl | – | 62 nM | > 100000 nM | –
12 | COC(=O)C1=C(CN2CCN3CCCC3C2)NC(c2nccs2)=N[C@H]1c1ccc(F)cc1Cl (stereo not given in full) | – | > 1000 nM | – | –
13 | COC(=O)C1=C(CN2CCN3C(=O)N([C@H]4CC[C@H](C(=O)O)CC4)C[C@@H]3C2)NC(c2nccs2)=N[C@H]1c1ccc(F)cc1Cl | 5.2 mL/min/kg | 9 nM | 43000 nM | –
14 | COC(=O)C1=C(CN2CCN3C(=O)CC[C@H]3C2)NC(c2nccs2)=N[C@H]1c1ccc(F)cc1Cl | – | 160 nM | 71000 nM | –
15 | COC(=O)C1=C(CN2CCN3C(=O)OCCC3C2)NC(c2nccs2)=N[C@H]1c1ccc(F)cc1Cl (stereo not given in full) | – | 100 nM | 62000 nM | –
16 | CCOC(=O)C1=C(CN2CCN3C(=O)N(c4ccc(C(=O)O)cc4)C[C@@H]3C2)NC(c2nccs2)=N[C@H]1c1ccc(F)cc1Cl (single isomer, unassigned) | – | 2 nM | 28000 nM | –
17 | COC(=O)C1=C(CN2CCN3C(=O)N([C@H]4C[C@@H](C(=O)O)C4)C[C@@H]3C2)NC(c2nccs2)=N[C@H]1c1ccc(F)cc1Cl | 0.4 mL/min/kg | 30 nM | > 100000 nM | –
18 | COC(=O)C1=C(CN2CCN3C(=O)N(c4cccc(C(=O)O)c4)C[C@@H]3C2)NC(c2nccs2)=N[C@H]1c1ccc(F)cc1Cl (single isomer, unassigned) | 0.3 mL/min/kg | 7 nM | 33000 nM | –
19 | COC(=O)C1=C(CN2CCN3C(=O)N([C@H]4C[C@H](C(=O)O)C4)C[C@@H]3C2)NC(c2nccs2)=N[C@H]1c1ccc(F)cc1Cl | – | 34 nM | 43000 nM | –
20 | COC(=O)C1=C(CN2CCN3C(=O)COCC3C2)NC(c2nccs2)=N[C@H]1c1ccc(F)cc1Cl (stereo not given in full) | – | 55 nM | 68000 nM | –
21 | COC(=O)C1=C(CN2CCN3C(=O)N(C(C)(C)CC(=O)O)C[C@@H]3C2)NC(c2nccs2)=N[C@H]1c1ccc(F)cc1Cl | 2.5 mL/min/kg | 30 nM | > 100000 nM | –
